Assay results from article PMC9916969 (International Journal of Molecular Sciences, 2023).
Read-outs that look alike come from different tables or passages of the source.

Experiments:
[1] = ethanol, difference spectra, two bands, cited from earlier work
[2] = Metal chelation by UV-Vis spectroscopy, Cu2+; settings: ethanol, 25 °C; compound and metal 40 μM; difference spectra; two bands per compound
[3] = Metal chelation by UV-Vis spectroscopy, Zn2+; settings: ethanol, 25 °C; compound and metal 40 μM; difference spectra; two bands per compound

Row | Compound | Shift of Absorbance, Cu(II) ([1]; absorption band at 237 nm) [nm] | Shift of Absorbance, Cu(II) ([1]; absorption band at 337, 323, 308 nm) [nm] | Shift of Absorbance, Cu(II) [2] [nm] | Shift of Absorbance, Zn(II) [3] [nm]
1 | O=C(NCCCCCCNc1c2c(nc3ccccc13)CCCC2)c1ccccc1O [5b] | 254 | 352 | – | –
2 | O=C(NCCCCCCNc1c2c(nc3ccccc13)CCCC2)c1cc(F)c(F)cc1O [7b] | – | – | 253 | 352
